# Test results: PubChem BioAssay (NCI)
#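 96-well plates; 48 h exposure; 5 concentrations. Endpoints by linear interpolation between flanking doses. Not reached: highest tested concentration assigned. TGI marks complete inhibition of growth.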
# What was measured:
# Assay in all cases: inhibition of tumour cell growth, NCI panel, 48 h
# [1] = test system: SNB-19 CNS
# [2] = test system: SK-MEL-2 melanoma
# [3] = test system: NCI-H23 lung
# [4] = test system: UACC-257 melanoma
# [5] = test system: OVCAR-8 ovarian
# [6] = test system: HCC-2998 colon
# [7] = test system: RPMI-8226 leukemia
# [8] = test system: SN12C renal
# [9] = test system: NCI-H226 lung
# [10] = test system: U251 CNS
# [11] = test system: NCI-H460 lung
# [12] = test system: A549 NSCLC
# [13] = test system: K-562 leukemia
# [14] = test system: HCT-116 colon
# [15] = test system: IGROV1 ovarian
# [16] = test system: A498 renal
# [17] = test system: SF-268 CNS
# [18] = test system: CCRF-CEM leukemia
# [19] = test system: SF-295 CNS
# [20] = test system: HOP-62 NSCLC
# [21] = test system: PC-3 prostate
# [22] = test system: MCF7 breast
# [23] = test system: MDA-MB-231 breast
# [24] = test system: SF-539 CNS
# [25] = test system: OVCAR-5 ovarian
# [26] = test system: SK-MEL-5 melanoma
# [27] = test system: LOX IMVI melanoma
# [28] = test system: M14 melanoma
# [29] = test system: SNB-75 CNS
# [30] = test system: MALME-3M melanoma
# [31] = test system: HT29 colon
# [32] = test system: DU-145 prostate
# [33] = test system: OVCAR-3 ovarian
# [34] = test system: RXF 393 renal
# [35] = test system: UO-31 renal
# [36] = test system: EKVX NSCLC
# [37] = test system: HOP-92 NSCLC
# [38] = test system: MOLT-4 leukemia
# [39] = test system: MDA-MB-435
# [40] = test system: MDA-N
# [41] = test system: OVCAR-4 ovarian
# [42] = test system: 786-0 renal
# [43] = test system: SW-620 colon
# [44] = test system: KM12 colon
# [45] = test system: BT-549 breast
# [46] = test system: SK-MEL-28 melanoma
# [47] = test system: NCI-H522 lung
# [48] = test system: ACHN renal
# [49] = test system: HCT-15 colon
# [50] = test system: NCI/ADR-RES ovarian
# [51] = test system: COLO 205 colon
# [52] = test system: HS 578T breast
# [53] = test system: CAKI-1 renal
# [54] = test system: SR leukemia
# [55] = test system: HL-60(TB) leukemia
smiles,measurement,setting,value
O=C(Cc1cc(=O)oc2cc(O)ccc12)N/N=C/c1ccc(N(CCCl)CCCl)cc1,TGI,[1],42.4 µM
same,TGI,[2],> 100 µM
same,TGI,[3],69.4 µM
same,TGI,[4],63.1 µM
same,TGI,[5],29.4 µM
same,TGI,[6],> 100 µM
same,TGI,[7],43.6 µM
same,TGI,[8],41.3 µM
same,TGI,[9],35 µM
same,TGI,[10],34.1 µM
same,TGI,[11],29.4 µM
same,TGI,[12],32 µM
same,TGI,[13],82.1 µM
same,TGI,[14],30.2 µM
same,TGI,[15],41.9 µM
same,TGI,[16],41.2 µM
same,TGI,[17],30.4 µM
same,TGI,[18],74.7 µM
same,TGI,[19],34.3 µM
same,TGI,[20],41.4 µM
same,TGI,[21],35.2 µM
same,TGI,[22],41.8 µM
same,TGI,[23],33.3 µM
same,TGI,[24],35.6 µM
same,TGI,[25],55 µM
same,TGI,[26],27.7 µM
same,TGI,[27],36.4 µM
same,TGI,[28],37.8 µM
same,TGI,[29],38.5 µM
same,TGI,[30],40.9 µM
same,TGI,[31],45.1 µM
same,TGI,[32],41 µM
same,TGI,[33],33.1 µM
same,TGI,[34],31 µM
same,TGI,[35],46.2 µM
same,TGI,[36],44.1 µM
same,TGI,[37],43.8 µM
same,TGI,[38],94.6 µM
same,TGI,[39],47.7 µM
same,TGI,[40],63 µM
same,TGI,[41],87.3 µM
same,TGI,[42],37.3 µM
same,TGI,[43],> 100 µM
same,TGI,[44],> 100 µM
same,TGI,[45],30.8 µM
same,TGI,[46],28.6 µM
same,TGI,[47],45 µM
same,TGI,[48],32.7 µM
same,TGI,[49],> 100 µM
same,TGI,[50],> 100 µM
same,TGI,[51],72 µM
same,TGI,[52],57.3 µM
same,TGI,[53],31.7 µM
same,TGI,[54],40.5 µM
same,TGI,[55],37.6 µM
